The values below come from paper PMC5329948, “Caspase vinyl sulfone small molecule inhibitors prevent axonal degeneration in human neurons and reverse cognitive impairment in Caspase-6-overexpressing mice” (Molecular Neurodegeneration, 2017).

Series [1] concerns the target T1, Casp6 in serum-deprived primary human neurons (Homo sapiens, UniProt P55212).
T1 construct: endogenous in cells; host or cells: primary human CNS neurons from cortical tissue, serum-deprived
Nature of the series: Casp6 activity in serum-deprived primary human neurons (VEIDase, FLICA, TubΔCasp6). The note with it: 100 μM. Format: cell-based. The method, then:
HCT116: Human colon carcinoma (HCT116) cells (ATCC, Manassas, VA, USA) were cultured in McCoy’s 5A modified media (Thermo Fisher Scientific, Waltham, MA, USA) supplemented with 10% fetal bovine serum (Thermo Fisher Scientific, Waltham, MA, USA) and transfected with 1 μg of pCep4βCasp6p20p10 mixed with 8 μg of polyethyleneimine (Polysciences Inc., Warrington, PA, USA). Protein expression was allowed for 24 h before treating with vehicle (PBS), 100 μM NWL-117, or 100 μM NWL-154 for 2 h. For NWL inhibitor kinetic experiments, 100 μM of NWL-117 or NWL-154 was added at 120, 90, 60, 30, 15, or 0 min before harvest. […]
Recombinant or extracted cellular Casp6 activity: Casp6 activity was assessed by in vitro fluorogenic assays using Ac-Val-Glu-Ile-Asp-(7-Amino-4-trifluoromethylcouramin) (Ac-VEID-AFC: Enzo LifeSciences, NY, USA) as the Casp6 substrate. The activity was measured in Stennicke’s buffer (SB) (20 mM piperazine-N, N-bis (2-ethanesulfonic acid) (PIPES: BioShop Canada Inc, Burlington, Ontario, CA) pH 7.2, 30 mM NaCl, 1 mM ethylenediaminetetraacetic acid (EDTA), 0.1% 3-[(3-cholamidopropyl)-dimethylammonio]-2-hydroxy-1-propanesulfonic acid (CHAPS), 10% sucrose). […] Fluorescence units were converted to the moles of AFC released based on a standard curve of 0–625 picomoles of free AFC. Cleavage rates were calculated from the linear phase of the assay. […]

Series [2] concerns primary human CNS neurons. Nature of the series: Cellular toxicity in primary human neurons (phase contrast, MTT). Format: cell-based. The note with it: for toxicity in human neurons: concentrations up to 100 μM; for neuronal morphology / mitochondrial reductive potential (MTT): primary human neurons; for neuronal morphology: 100 μM, 24 h; for mitochondrial reductive potential (MTT): 24 or 48 h. The protocol:
HCT116: Human colon carcinoma (HCT116) cells (ATCC, Manassas, VA, USA) were cultured in McCoy’s 5A modified media (Thermo Fisher Scientific, Waltham, MA, USA) supplemented with 10% fetal bovine serum (Thermo Fisher Scientific, Waltham, MA, USA) and transfected with 1 μg of pCep4βCasp6p20p10 mixed with 8 μg of polyethyleneimine (Polysciences Inc., Warrington, PA, USA). Protein expression was allowed for 24 h before treating with vehicle (PBS), 100 μM NWL-117, or 100 μM NWL-154 for 2 h. For NWL inhibitor kinetic experiments, 100 μM of NWL-117 or NWL-154 was added at 120, 90, 60, 30, 15, or 0 min before harvest. […] For recovery time course experiments, after the initial treatment with 100 μM of NWL-117 or −154 for 2 h, the media was replaced with fresh media for 120, 90, 60, 30, 15, or 0 min before harvest. Primary Human CNS neurons: Cortical tissues were obtained from the Birth Defects Research Laboratory (BDRL, University of Washington, Seattle, USA) in accordance with NIH ethical guidelines approved by McGill University’s institutional review board and primary neurons cultured as previously described. Primary human neurons were seeded on poly-L-lysine-coated (5 μg/mL) 6-well plates or glass coverslips coated with poly-L-lysine and laminin (5 μg/mL) (Sigma-Aldrich, Oakville, ON, CA) at a density of 3x10^6 cells/mL. Primary human neurons were pre-treated with 0.1 μM epoxomicin (Enzo LifeSciences, Farmingdale, NY, USA) and 100 μM NWL-117, 100 μM NWL-154, or vehicle (PBS) for 2 h, and serum-deprived for 2 h in the presence of epoxomicin and vehicle (PBS), 100 μM NWL-117, or 100 μM NWL-154 before harvesting or measuring caspase activity with FLICA, as described below.
Immunofluorescence on human neuron cultures: Primary human neurons were pre-treated 2 h and serum-deprived in the presence of 100 μM NWL-117, 100 μM NWL-154, or 5 μM Z-VEID-fmk (Biomol, Plymouth meeting, PA, USA) for 24 h. Following treatment, human neurons were washed once with warm PBS, fixed for 20 min at room temperature with 4% paraformaldehyde (Sigma, Oakville, ON, CA)/4% sucrose (BioRad, Mississauga, ON, CA) for TubΔCasp6 or 2% formaldehyde (Thermo Fisher Scientific, Waltham, MA, USA)/0.2% glutaraldehyde (Sigma, Oakville, ON, CA) for pBudEGFP or pBudEGFP/APP^WT-transfected neurons, incubated in permeabilization buffer (0.1% Triton X-100, 0.1 sodium citrate) for 1 min on ice, washed with PBS, blocked for 20 min at room temperature with 10% goat serum (Sigma, Oakville, ON, CA), and incubated with primary antibodies diluted in 10% goat serum in PBS overnight at 4 °C in a humid chamber. The glass coverslips were washed with PBS, and incubated with goat anti-rabbit secondary antibody coupled to Alexa 488 (Molecular Probes, Eugene, OR, USA) or Cy3 (GE Healthcare Life Sciences, Baie D’Urfe, QC, CA) and Hoechst 33342 (ImmunoChemistry, Bloomington, MN, USA) at 1 μg/mL for 2 h at room temperature. The coverslips were washed with PBS and rinsed in Milli-Q water before mounting in fluoromount (Dako, Burlington, ON, CA). Images were acquired by fluorescence microscopy and quantified using the ImageJ software (NIH, Bethesda, MD, USA) for TubΔCasp6 and manually counted for transfected EGFP(+)-neurons. Time lapse-imaging by live fluorescence microscopy: Primary human neurons were transfected with gold beads coated with pBudEGFP or pBudEGFP/APP^WT using a Helios Gene gun (BioRad, Mississauga, ON, CA). Briefly, cells were pre-treated with 100 μM NWL inhibitors or 5 μM Z-VEID-fmk for 2 h. The media was removed and the neurons were shot at 100 psi. The media was quickly replaced with the inhibitors present. The plasmid was expressed for 16 h before setting up the fluorescence microscope (Nikon Eclipse Ti) to acquire 20 images per condition every hour for 72 h at 37 °C with 5% CO2. The images were analyzed by counting the total number of neurons (50–100 neurons per condition per independent experiment), and the number of beaded, swollen soma, and healthy neurons. […]

T1 sequence (P55212 24-293): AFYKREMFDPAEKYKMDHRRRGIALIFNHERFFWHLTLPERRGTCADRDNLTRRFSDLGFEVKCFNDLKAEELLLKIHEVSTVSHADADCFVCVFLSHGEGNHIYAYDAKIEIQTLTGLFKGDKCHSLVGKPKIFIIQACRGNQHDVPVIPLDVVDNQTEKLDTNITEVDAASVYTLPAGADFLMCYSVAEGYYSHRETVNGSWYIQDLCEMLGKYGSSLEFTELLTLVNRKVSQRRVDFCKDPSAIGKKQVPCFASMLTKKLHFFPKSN

For the molecule `CCC(C)[C@H](NC(=O)[C@H](CCC(=O)O)NC(=O)[C@@H](NC(=O)OCc1ccccc1)C(C)C)C(=O)N[C@H](/C=C/S(C)(=O)=O)CC(=O)O` (some centres unmarked) [NWL-117], the “Casp6 fluorogenic and FLICA-measured activity and TubΔCasp6” value in series [1] is “decreased”. Besides, in series [2], the “toxicity in human neurons” value is listed as “neither NWL-117 nor −154 is toxic”, the neuronal morphology entry is given as “did not change neuronal morphology” and the “mitochondrial reductive potential (MTT)” value was “comparable to vehicle-treated neurons”.

In the case of `CCC(C)[C@H](NC(=O)[C@H](CCC(=O)O)NC(=O)[C@@H](NC(=O)OCc1ccccc1)C(C)C)C(=O)N[C@H](/C=C(\Cl)S(C)(=O)=O)CC(=O)O` (some centres unmarked) [NWL-154], the “Casp6 fluorogenic and FLICA-measured activity and TubΔCasp6” value in series [1] is “decreased”. Also, in series [2], the “toxicity in human neurons” value was “neither NWL-117 nor −154 is toxic”, the neuronal morphology result is given as “did not change neuronal morphology” and the “mitochondrial reductive potential (MTT)” value was “comparable to vehicle-treated neurons”.
